Assay results taken from PubChem BioAssay (NCI).
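GI50 is the concentration that inhibits growth by half. TGI: total growth inhibition.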

Experiments:
Experiment in all cases: NCI tumour cell line growth inhibition, 384-well format
KM12 colon = tested on: KM12 colon
CCRF-CEM leukemia = tested on: CCRF-CEM leukemia
U251 glioblastoma = tested on: U251 glioblastoma
SK-MEL-2 melanoma = tested on: SK-MEL-2 melanoma
EKVX NSCLC = tested on: EKVX NSCLC
HT29 colon = tested on: HT29 colon
UACC-257 melanoma = tested on: UACC-257 melanoma
MDA-MB-435 melanoma = tested on: MDA-MB-435 melanoma
HCT-116 colon = tested on: HCT-116 colon
SF-268 CNS = tested on: SF-268 CNS
RPMI-8226 leukemia = tested on: RPMI-8226 leukemia
SNB-75 CNS = tested on: SNB-75 CNS
BT-549 breast = tested on: BT-549 breast
HOP-92 NSCLC = tested on: HOP-92 NSCLC
786-0 renal = tested on: 786-0 renal
SF-539 CNS = tested on: SF-539 CNS
OVCAR-3 ovarian = tested on: OVCAR-3 ovarian
DU-145 prostate = tested on: DU-145 prostate
K-562 leukemia = tested on: K-562 leukemia
UACC-62 melanoma = tested on: UACC-62 melanoma
OVCAR-5 ovarian = tested on: OVCAR-5 ovarian
RXF 393 renal = tested on: RXF 393 renal
NCI-H460 NSCLC = tested on: NCI-H460 NSCLC
HL-60(TB) leukemia = tested on: HL-60(TB) leukemia
OVCAR-8 ovarian = tested on: OVCAR-8 ovarian
NCI-H322M lung = tested on: NCI-H322M lung
CAKI-1 renal = tested on: CAKI-1 renal
MOLT-4 leukemia = tested on: MOLT-4 leukemia
HOP-62 NSCLC = tested on: HOP-62 NSCLC
SR leukemia = tested on: SR leukemia
SK-MEL-28 melanoma = tested on: SK-MEL-28 melanoma
A549 NSCLC = tested on: A549 NSCLC
SK-MEL-5 melanoma = tested on: SK-MEL-5 melanoma
T-47D breast = tested on: T-47D breast
A498 renal = tested on: A498 renal
MCF7 breast = tested on: MCF7 breast
HCT-15 colon = tested on: HCT-15 colon
OVCAR-4 ovarian = tested on: OVCAR-4 ovarian
NCI/ADR-RES ovarian = tested on: NCI/ADR-RES ovarian
LOX IMVI melanoma = tested on: LOX IMVI melanoma
HS 578T breast = tested on: HS 578T breast
UO-31 renal = tested on: UO-31 renal
SK-OV-3 ovarian = tested on: SK-OV-3 ovarian
SN12C renal = tested on: SN12C renal
SNB-19 CNS = tested on: SNB-19 CNS
NCI-H522 lung = tested on: NCI-H522 lung
PC-3 prostate = tested on: PC-3 prostate
HCC-2998 colon = tested on: HCC-2998 colon
COLO 205 colon = tested on: COLO 205 colon
SF-295 CNS = tested on: SF-295 CNS
IGROV1 ovarian = tested on: IGROV1 ovarian
TK-10 renal = tested on: TK-10 renal
MDA-MB-468 breast = tested on: MDA-MB-468 breast
NCI-H23 lung = tested on: NCI-H23 lung
M14 melanoma = tested on: M14 melanoma
ACHN renal = tested on: ACHN renal
MDA-MB-231 breast = tested on: MDA-MB-231 breast
MALME-3M melanoma = tested on: MALME-3M melanoma
NCI-H226 lung = tested on: NCI-H226 lung
SW-620 colon = tested on: SW-620 colon

## Cn1ncnc1[C@H]1c2n[nH]c(=O)c3cc(F)cc(c23)N[C@@H]1c1ccc(F)cc1
KM12 colon
  GI50: > 100 µM
  TGI: > 100 µM
CCRF-CEM leukemia
  GI50: 0.256 µM
  TGI: 1.27 µM
U251 glioblastoma
  GI50: 2.88 µM
  TGI: > 100 µM
SK-MEL-2 melanoma
  GI50: > 100 µM
  TGI: > 100 µM
EKVX NSCLC
  GI50: > 78.7 µM
  TGI: > 100 µM
HT29 colon
  GI50: > 100 µM
  TGI: > 100 µM
UACC-257 melanoma
  GI50: > 100 µM
  TGI: > 100 µM
MDA-MB-435 melanoma
  GI50: > 100 µM
  TGI: > 100 µM
HCT-116 colon
  GI50: 0.706 µM
  TGI: > 100 µM
SF-268 CNS
  GI50: 1.39 µM
RPMI-8226 leukemia
  GI50: 6.39 µM
  TGI: > 100 µM
SNB-75 CNS
  GI50: 6.38 µM
  TGI: 29.5 µM
BT-549 breast
  GI50: 2.5 µM
  TGI: > 61.4 µM
HOP-92 NSCLC
  GI50: 46.9 µM
  TGI: > 100 µM
786-0 renal
  GI50: > 73.7 µM
  TGI: > 100 µM
SF-539 CNS
  GI50: 1.02 µM
  TGI: > 100 µM
OVCAR-3 ovarian
  GI50: > 79.7 µM
  TGI: > 100 µM
DU-145 prostate
  GI50: 1.38 µM
  TGI: 30 µM
K-562 leukemia
  GI50: 30.7 µM
  TGI: > 100 µM
UACC-62 melanoma
  GI50: 14.7 µM
  TGI: > 100 µM
OVCAR-5 ovarian
  GI50: > 100 µM
  TGI: > 100 µM
RXF 393 renal
  GI50: 3.29 µM
  TGI: > 26.9 µM
NCI-H460 NSCLC
  GI50: 0.0169 µM
  TGI: > 66.3 µM
HL-60(TB) leukemia
  GI50: 0.625 µM
  TGI: 1.99 µM
OVCAR-8 ovarian
  GI50: 0.804 µM
  TGI: > 100 µM
NCI-H322M lung
  GI50: > 100 µM
  TGI: > 100 µM
CAKI-1 renal
  GI50: 21 µM
  TGI: > 100 µM
MOLT-4 leukemia
  GI50: 0.0183 µM
  TGI: 0.145 µM
HOP-62 NSCLC
  GI50: 0.228 µM
  TGI: 8.8 µM
SR leukemia
  TGI: 0.0102 µM
SK-MEL-28 melanoma
  GI50: > 90.3 µM
  TGI: > 100 µM
A549 NSCLC
  GI50: 7.83 µM
  TGI: > 100 µM
SK-MEL-5 melanoma
  GI50: 41.1 µM
  TGI: > 100 µM
T-47D breast
  GI50: 10.9 µM
  TGI: > 100 µM
A498 renal
  GI50: 31.1 µM
  TGI: > 100 µM
MCF7 breast
  GI50: 1.72 µM
  TGI: > 100 µM
HCT-15 colon
  GI50: > 43.7 µM
  TGI: > 100 µM
OVCAR-4 ovarian
  GI50: > 84.8 µM
  TGI: > 100 µM
NCI/ADR-RES ovarian
  GI50: 17.4 µM
  TGI: > 100 µM
LOX IMVI melanoma
  GI50: 2.07 µM
  TGI: > 100 µM
HS 578T breast
  GI50: 15.2 µM
  TGI: > 100 µM
UO-31 renal
  GI50: 26.9 µM
  TGI: > 100 µM
SK-OV-3 ovarian
  GI50: 3.82 µM
  TGI: > 100 µM
SN12C renal
  GI50: 3.72 µM
  TGI: > 100 µM
SNB-19 CNS
  GI50: 10.9 µM
  TGI: > 100 µM
NCI-H522 lung
  GI50: 44.6 µM
  TGI: > 100 µM
PC-3 prostate
  GI50: > 100 µM
  TGI: > 100 µM
HCC-2998 colon
  GI50: 40.3 µM
  TGI: > 100 µM
COLO 205 colon
  GI50: 1.87 µM
  TGI: > 100 µM
SF-295 CNS
  GI50: 0.204 µM
  TGI: 2.56 µM
IGROV1 ovarian
  GI50: > 33 µM
  TGI: > 100 µM
TK-10 renal
  GI50: > 100 µM
  TGI: > 100 µM
MDA-MB-468 breast
  GI50: 0.123 µM
  TGI: 1.13 µM
NCI-H23 lung
  GI50: 0.56 µM
  TGI: > 47.7 µM
M14 melanoma
  GI50: 2.25 µM
  TGI: > 100 µM
ACHN renal
  GI50: 17 µM
  TGI: > 100 µM
MDA-MB-231 breast
  GI50: > 100 µM
  TGI: > 100 µM
MALME-3M melanoma
  GI50: > 64.6 µM
  TGI: > 100 µM
NCI-H226 lung
  GI50: 22 µM
  TGI: > 100 µM
SW-620 colon
  GI50: 3.66 µM
  TGI: > 100 µM
